According to patent US4521537A, “Spiro[2H-1,4-benzodioxepin-3(5H)4'-piperidine and -3'-pyrrolidine] compounds and their use as antihypertensive agents” (Hoechst-Roussel Pharmaceuticals Incorporated, priority 1984, dated 1985):
Structures can show the parent of a compound that is named as a salt. Where two headings read alike, the source gives them in different places.

Key:
mice = test: phenylquinone-induced writhing test in mice (PQW), analgesia; format: in vivo, male, CD-1 mice; details: Mus musculus; for change in vivo at 20 mg/kg: 20 mg/kg SC, read-out: PQW % (percent inhibition of writhing); for ED50: SC, read-out: ED50 (PQW)
Experimental: Compounds of this invention produce analgesia when administered to mammals. A phenylquinone-induced writhing test in mice (PQW) was used as an assay to detect analgesia. The procedure employed was a modification of Siegmund, E., Cadmus, R. and Lu, G: Proc. Soc. Exptl. Bio. Med., 95: 729 (1957). 12.5 mg of phenyl-p-benzoquinone were dissolved in 5 ml of 95% ethanol and q.s. to 100 ml with distilled water and administered to mice (10 ml/kg, i.p.). This produces a characteristic "writhe" which is defined as an inward rotation of one or more feet with twisting and turning of the trunk, drawing in of the abdominal wall, lordosis and arching of the back.
A total of 28 male, CD-1 mice (18 to 30 grams) were employed for a time response. Animals recived food and water ad libitum. Drugs to be tested were prepared with distilled water and, if insoluble, one drop of a suitable surfactant was added.
Twenty animals (5/group) were administered the drug 15, 30, 45 and 60 minutes prior to phenylquinone injections. Control animals (2/group) received an equal amount of vehicle. After the administration of phenylquinone the mice were placed separately into one-liter beakers and 5 minutes were allowed to lapse. The mice were then observed for a period of 10 minutes and the number of writhes were recorded for each animal. The formula for computing percent inhibition is: [formula]
The time period with the greatest percent of inhibition is considered the peak time.
A dose range is run in the same fashion as a time response except 10 animals per group were tested at the peak time of drug activity. Fifty animals, 4 drug groups, and a vehicle control were employed. Animals were dosed and tested in a randomized manner. An estimated ED50 was calculated by a computer linear regression analysis.

[1] = test system: spontaneous hypertensive rat; test: antihypertensive activity, spontaneous hypertensive rat (SHR) test, indirect tail cuff method; format: in vivo; details: 50 mg/kg PO
Experimental: Compounds of this invention are useful as antihypertensive agents due to their ability to depress blood pressure in mammals. Antihypertensive activity is measured in the spontaneous hypertensive rat by the indirect tail cuff method described by A. Schwartz, Ed., Methods in Pharmacology, Vol. page 135, Appleton Century Crafts, New York (1971). […] The drop in blood pressure is measured on the third day following administration. The antihypertensive activity is expressed as mm Hg decrease in mean arterial blood pressure.

Structure (SMILES) | change in vivo at 20 mg/kg (mice; Table III) [%] | SHR mm Hg (decrease in mean arterial blood pressure) ([1]; Table III) [mm Hg] | change in vivo at 20 mg/kg (mice; Table II) [%] | SHR mm Hg (decrease in mean arterial blood pressure) ([1]; Table II) [mm Hg] | ED50 (mice; Table III, printed in PQW % column) [mg/kg] | ED50 (mice; Table II, computer linear regression, peak time) [mg/kg]
CC1Oc2ccc(Cl)cc2COC12CCN(CC(O)COc1ccc(F)cc1)CC2 (centres unmarked) [Example 93, 7-Chloro-2-methyl-1'-[2-hydroxy-3-(4-fluorophenoxy)propyl]spiro[2H-1,4-benzodioxepin-3(5H)4'-piperidine]hydrochloride] | -88 | -24 | – | – | – | –
CC1Oc2ccccc2COC12CCN(CC(O)COc1ccccc1)CC2 (centres unmarked) [Example 88, 2-Methyl-1'-(2-hydroxy-3-phenoxypropyl)spiro[2H-1,4-benzodioxepin-3(5H)4'-piperidine]hydrochloride] | -99 | -34 | – | – | – | –
Cc1[nH]c2ccccc2c1CCCN1CCC2(CC1)OCc1ccccc1OC2C (centres unmarked) [Example 53, 2-Methyl-1'-[3-(2-methylindol-3-yl)propyl]spiro[2H-1,4-benzodioxepin-3(5H)4'-piperidine]fumarate] | – | – | -30 | -32 | – | –
COc1ccc(OCC(O)CN2CCC3(CC2)OCc2ccccc2OC3C)cc1 (centres unmarked) [Example 89, 2-Methyl-1'-[2-hydroxy-3-(4-methoxyphenoxy)propyl]-spiro[2H-1,4-benzodioxepin-3(5H)4'-piperidine]hydrochloride] | -57 | -40 | – | – | – | –
CC1Oc2ccc(Cl)cc2COC12CCN(CCCCc1ccc(F)cc1)CC2 (centres unmarked) [Example 78, 1'-[4-(4-Fluorophenyl)butyl]-7-chloro-2-methylspiro[2H-1,4-benzodioxepin-3(5H)4'-piperidine]hydrochloride] | -68 | -61 | – | – | 6.8 | –
CC1Oc2ccccc2COC12CCN(CCN)CC2 (centres unmarked) [Example 49, 1'-(2-Aminoethyl)-2-methylspiro[2H-1,4-benzodioxepin-3(5H)4'-piperidine]dioxalate] | – | – | -85 | -23 | – | 4.7
